Reference: patent US9827223B2 (priority 2001, dated 2017)
Like-named read-outs stand apart in the source and are kept apart here.

What was measured:
VR1eGFP [1] = target: T1, VR1eGFP (Rattus norvegicus, UniProt O35433); format: cell-based
T1 construct: expressed in transfected cells; host or cells: Cos7 and HEK293 cells, transient transfection

VR1eGFP [2] = target: T1, VR1eGFP; experiment: cell-based; conditions: N=3; read-out: ED50 of induced Ca2+ uptake
[3] = target: T2, VR1ε (C-terminal epsilon epitope-tagged vanilloid 1 receptor) (Rattus norvegicus, UniProt O35433); format: cell-based
T2 construct: expressed in transfected cells; host or cells: NIH 3T3 cells, G418-selected colony A5, pMTH-VR1ε plasmid
T2 sequence (O35433 whole entry): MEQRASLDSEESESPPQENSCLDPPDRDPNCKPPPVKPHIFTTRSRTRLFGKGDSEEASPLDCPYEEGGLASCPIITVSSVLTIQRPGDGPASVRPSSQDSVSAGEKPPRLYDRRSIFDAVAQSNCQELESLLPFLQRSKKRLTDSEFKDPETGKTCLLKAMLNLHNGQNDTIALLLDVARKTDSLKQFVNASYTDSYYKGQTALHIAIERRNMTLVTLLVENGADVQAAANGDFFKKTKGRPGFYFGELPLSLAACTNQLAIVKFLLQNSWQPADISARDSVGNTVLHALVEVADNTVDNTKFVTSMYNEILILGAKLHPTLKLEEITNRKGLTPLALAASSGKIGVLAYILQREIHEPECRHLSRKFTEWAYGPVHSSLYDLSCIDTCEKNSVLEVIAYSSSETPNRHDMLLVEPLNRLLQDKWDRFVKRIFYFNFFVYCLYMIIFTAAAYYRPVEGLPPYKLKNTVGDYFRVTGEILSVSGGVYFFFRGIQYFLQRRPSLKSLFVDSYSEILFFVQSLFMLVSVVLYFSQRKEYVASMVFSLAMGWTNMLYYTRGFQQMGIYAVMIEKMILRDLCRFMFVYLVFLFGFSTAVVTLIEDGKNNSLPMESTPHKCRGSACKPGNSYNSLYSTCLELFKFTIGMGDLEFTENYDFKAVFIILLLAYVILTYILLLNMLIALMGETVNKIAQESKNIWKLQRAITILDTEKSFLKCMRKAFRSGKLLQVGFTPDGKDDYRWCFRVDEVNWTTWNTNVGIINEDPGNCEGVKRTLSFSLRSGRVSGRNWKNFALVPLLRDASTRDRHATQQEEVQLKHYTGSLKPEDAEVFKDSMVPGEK

VR1eGFP-expressing cells = format: cell-based
VR1eGFP [4] = target: T1, VR1eGFP; format: cell-based; conditions: 1 nM
trigeminal ganglion [5] = format: in vivo, Sprague Dawley rats
trigeminal ganglion [6] = system: trigeminal ganglion; parameters: species or system Sprague Dawley rats; conditions: rat, in vivo
[7] = system: C-fiber neurons of the trigeminal ganglion; parameters: species or system Sprague Dawley rats; conditions: rat, in vivo
[8] = parameters: species or system Sprague Dawley rats; conditions: rat, in vivo
[9] = parameters: species or system Sprague Dawley rats; conditions: rat, in vivo; remark: listed apart in the source
dorsal root ganglion = system: dorsal root ganglion; parameters: species or system patient; conditions: human, in vivo
[10] = rat, in vivo, cited from earlier work
eGFP- and e-tagged VR1 = target: T3, eGFP- and e-tagged VR1 (Rattus norvegicus, UniProt O35433); format: binding
T3 construct: expressed in transfected cells; host or cells: Cos7 cells
T3 sequence (O35433 whole entry): as above

T1 sequence (O35433 whole entry): as above

Question: What does the source list for `C=C(C)[C@]12C[C@@H](C)[C@@]34O[C@](Cc5ccccc5)(O[C@@H]1[C@@H]3C=C(COC(=O)Cc1ccc(O)c(OC)c1)C[C@]1(O)C(=O)C(C)=C[C@@H]41)O2` [RTX, Resiniferatoxin]?
Answer: currents and capacitance change in non-transfected cells (VR1eGFP [1]): neither evoked currents nor induced a change in capacitance; loss of plasma membrane (VR1eGFP [1]): about 600 μm^2; receptor desensitization (VR1eGFP [1]): complete desensitization; drop of membrane capacitance of VR1eGFP-transfected cells (VR1eGFP [1]; 125 pM): 6±2.5 pF; EC50 (VR1eGFP [2]): 0.1 ± 0.05 nM; 45Ca2+-uptake above the base line of non-transfected NIH3T3 cells [3]: > 50 fold; ER, plasma membrane and mitochondria morphology (VR1eGFP-expressing cells): dramatic fragmentation of the ER; nuclear membrane fragmentation at lower doses (VR1eGFP-expressing cells): slower nuclear membrane fragmentation; mitochondrial reaction (VR1eGFP-expressing cells; 1 nM): mitochondria reacted rapidly; time to bursting of the plasma membrane (VR1eGFP-expressing cells; 1 nM): about 45 minutes; peak [Ca2+]i (VR1eGFP [4]): 500 nM; time to elevation of [Ca2+]i (VR1eGFP [4]): ≤ 10 s; eye wipes in the first minute (trigeminal ganglion [5]; n=4): 7±3 wipes; eye wipes in the first minute (trigeminal ganglion [5]; rat, in vivo): no eye wipes; plasma extravasation (trigeminal ganglion [6]): dramatic blockade; fate of CGRP-stained cells in the injected ganglion [7]: killed; paw withdrawal latency [8]: 18 ± 1.2 s; mechanical pinch sensitivity [9]: No attenuation; symptoms of chronic pain (dorsal root ganglion): reduction of the symptoms of chronic pain; time without restoration of pain sensitivity (thermal analgesia) ([10]; sc): over 7 days

Question: With `COc1cc(CNC(=O)CCCC/C=C/C(C)C)ccc1O` [capsaicin] as the compound, how does the “current induced in voltage-clamped VR1eGFP cells” value (VR1eGFP [1]) read?
Answer: induced a large inward current

Question: And the mitochondrial reaction (VR1eGFP-expressing cells; 1 uM)?
Answer: mitochondria reacted rapidly

Question: And the thermal analgesia [10]?
Answer: No thermal analgesia

Question: For `Oc1cc2c(cc1O)CN(C(=S)NCCc1ccc(Cl)cc1)CCC2` [capsazepine], which “effect on VR1eGFP-mediated current” value (VR1eGFP [1]) is on record?
Answer: attenuated

Question: And the “inhibition of [3H]RTX binding” value (eGFP- and e-tagged VR1)?
Answer: almost completely inhibited
